In EP1266655A1, “ENTERIC GRANULAR PREPARATIONS OF HARDLY WATER SOLUBLE DRUGS CHARACTERIZED BY CONTAINING WATER-REPELLENT COMPONENT” (SHIONOGI & CO., LTD., priority 2000, dated 2001) one finds solubility data, which are given here for 1 compound.

Structures are written as SMILES. Values after ≈ are worked out from the molar mass of the structure shown.

This data set can be described thus: Solubility of Compound A in several test solutions. In kind it is physicochemical. From the text:
Compound A was used as an insoluble active ingredient in the following references and examples.

In general, solubility refers to the concentration that dissolves in the medium under given conditions. For `CC1(C)[C@H]2C[C@H](C/C=C\CCCC(=O)O)[C@@H](NC(=O)c3csc4ccc(O)cc34)[C@@H]1C2` [Compound A, (Z)-7-[(1R,2R,3S,5S)-2-(5-hydroxybenzo[b]thiophen-3-ylcarbonylamino)-10-norpinan-3-yl]-5-heptenoic acid], the solubility at 3 h (Water, 3 hours, final pH 5.81) turned out to be 5.56 µg/mL (≈ 12.6 µM); the solubility at 3 h (jp-2 solution, JP-2 Sol., 3 hours, final pH 6.84) was 81.1 µg/mL (≈ 184 µM); the solubility at 3 h (ph 6.0 test solution, pH6.0, 3 hours, final pH 6.08) was 15.2 µg/mL (≈ 34.4 µM); the solubility at 3 h (ph 7.8 test solution, pH7.8, 3 hours, final pH 7.6) stood at 488 µg/mL (≈ 1100 µM); the solubility at 3 h (ph 8.0 test solution, pH8.0, 3 hours, final pH 7.76) was 653 µg/mL (≈ 1480 µM); the concentration in solution (ph 8.5 test solution, pH8.5, 3 hours, final pH 8.29) (solubility at 3 h) came to 6200 µg/mL (≈ 14000 µM). The solubility at 6 h came out at 5.93 µg/mL (≈ 13.4 µM) (Water, 6 hours, final pH 5.81); 81.7 µg/mL (≈ 185 µM) (jp-2 solution, JP-2 Sol., 6 hours, final pH 6.84); 15.6 µg/mL (≈ 35.3 µM) (ph 6.0 test solution, pH6.0, 6 hours, final pH 6.08); 489 µg/mL (≈ 1110 µM) (ph 7.8 test solution, pH7.8, 6 hours, final pH 7.6); 676 µg/mL (≈ 1530 µM) (ph 8.0 test solution, pH8.0, 6 hours, final pH 7.76); 6220 µg/mL (≈ 14100 µM) (ph 8.5 test solution, pH8.5, 6 hours, final pH 8.29).
